Laboratory results taken from patent publication US20250381274A1 (priority 2022, published 2025).
Values joined by “and” are separate entries in the source; they are usually repeats but may differ in a detail not shown here. Equal values may be shown once. “Also recorded” adds a separate entry of the source. Read-outs that look alike come from different tables or passages of the source.

Tests used:
[1] = tested on: corneal buttons; set-up: species or system rabbit
Experimental: • 3 rabbits, (n=8 pairs of 3 mm biopsy punched corneal buttons) • Laser Treatments: • Fidelity II, 1069 nm, 450 mW • Focusing: Marker/spark around, not touching the tissue • Objective: ZEISS 40X, NA=0.1463 • Z: increments 20 μm, 5 layers (several intervals) • 1stlayer 15 μm below surface of focus sparking • XY: 10 μm zigzag grid, 3 mm radius circle • With ˜12 gram compression • Motor speed 2.6 mm/s, full circle treatments: ˜25*5 mins • Sample Preparation: • −3 mm biopsy punch (1BT) • not connected to IV system • Prior to LT: 30 mins in 20% w/w Dextran 500 in PBS • 30 mins in 20% w/w ribose in DPBS (˜1.7M) • Post LT: Trypan blue is used to mark endothelium side • Imaged on the same day in DPBS • Overnight storage in DPBS in 4C fridge • 3 hrs prior to indentation, in room temp PBS • Piuma nano-indentation: • For each cornea button, the average of up to 16 indentations are acquired as
• 3 rabbits, (n=10 pairs of 3 mm biopsy punched corneal buttons) • 3 mm biopsy punch • not connected to IV system • Treatment Protocol-1 hr submerged in 20% w/v Ribose for all samples • 1 hr of UV-A lamp irradiation (control was not under UV) • Post Treatment Trypan blue is used to mark endothelium side • Imaged on the same day in DPBS • Overnight storage in DPBS in 4C fridge • 3 hrs prior to indentation, in room temp PBS • Piuma nano-indentation: • For each cornea button, the average of up to 16 indentations are acquired as representative modulus • The average of the representative modulus are presented in appended FIGS. 1-25.
Nano-Indentation: The corneal buttons were stored in PBS in a 4C fridge overnight for hydration equilibrium. Indentations of 5 μm depth using 29-35 μm diameter spherical indenters were performed on the anterior surface of the cornea buttons to acquire 25-second load-relaxation curves. For each button, the average of up to 16 indentations was used as the representative result. The equilibrium modulus and the viscoelastic ratio, defined as equilibrium modulus over instantaneous modulus, were calculated and compared.
Nanoindentation: Indentations were performed on the anterior surface of the cornea buttons. The equilibrium modulus E∞, instantaneous modulus Eo, and the viscoelastic ratio E∞/Eo, were calculated and compared.
After overnight incubation in PBS at 4C to reach equilibrium hydration, corneal buttons in Group A were allowed to return to room temperature the next morning after the respective treatment days while glued to the bottom of a petri-dish with the anterior surface of the corneal button facing upward. A displacement-controlled indenter (Piuma, Optics 11, Amsterdam, The Netherlands) was used to perform micro-indentations on top of the sample surface submerged in PBS; for each sample, multiple tests were performed following an array of 16 equally spaced (4×4) contact points with a spacing of 100 μm to 150 μm, covering roughly a 0.4×0.4 mm^2 area at the center of each corneal button. A spherical glass probe with a 34 μm radius and 0.2 N/m stiffness was used for samples in Group 1A; another spherical glass probe with a 25.5 μm radius and 4.09 N/m stiffness was used for Group 1B, 1C, 1D, and 2C. The indentation process at each contact point was comprised of three consecutive steps of loading Piezo movement of 5 μm for 2 seconds, holding time of 5 s, and unloading for 2 seconds. The load-relaxation curves obtained after indenting each point were then processed using a viscoelastic model to obtain equilibrium modulus and viscoelastic ratio following a fitting algorithm developed by Oyen.

[2] = tested on: cornea; assay: Optical coherence tomography, corneal apical thickness; set-up: species or system rabbit; conditions: for sustained thickness change, treated vs control / thickness increase compared to the baseline: final time point; for thickness increase compared to the baseline: all eyes (treated and control)
Experimental: In Group2 (n=15 rabbits), to assess corneal flattening, 24 intact eyeballs (12 rabbits) were enucleated and placed into a custom-build holder such that one eye was subject to ROS-Glycation-CXL, and the other served as a paired control. After 1 hr incubation in 20% ribose PBS, all apical eyeballs were pressed with a coverslip until the contact between the cornea and the coverslip reached approximately 3 mm in diameter until the treatment finished. Group 2A's (n=6 pairs) treated eyes were exposed to 1.5 hours of UVA lamp irradiation, whereas Group 2 B's (n=6 pairs) treated eyes were exposed to 3 hours of UVA lamp irradiation. Intraocular pressure was kept at 18-20 mm H2O through an IV system with needles connecting at the posterior side of the eyeball. In order to investigate the mechanical difference between the 1.5 hrs and 3 hrs irradiation groups, Group 2C's (n=3 pairs) corneas went through similar preparations as Group 1 corneas did such that the two treatments with different irradiation times were applied to the pair of eyes from the same animal. The corneas' cross-section and apical thickness were measured using an optical coherence tomographer (OQ LabScope Lumedica, North Carolina, USA) at the same time points described above. The thickness of the corneas was first segmented in ImageJ and calculated using a constant pixel-to-length conversion factor.

[3] = 20% ribose 1 hr + 365 nm UVA lamp 1 hr
[4] = 20% ribose + 400 nm femtosecond laser
[5] = 20% ribose + 1069 nm femtosecond laser
[6] = 20% ribose + 1069 nm femtosecond laser, listed as Ribose

O=C[C@H](O)[C@H](O)[C@H](O)CO [ribose]
instantaneous modulus change vs paired control [1, 3]: significantly increased | viscoelastic ratio change vs paired control (words) [1, 3]: no change; also recorded: no significant E∞/Eo difference; also recorded: No significant changes; also recorded: None of the ROS-Glycation-CxL treatments produced a significant difference | equilibrium modulus change vs paired control (words) ([1]; 20% ribose 1 hr + 365 nm UVA lamp 1 hr, coverslip): significantly increased; also recorded: significantly higher; also recorded: statistically significant differences | equilibrium modulus change vs paired control (words) ([1]; 20% ribose 1 hr + 365 nm UVA lamp 1 hr, coverslip, listed as Ribose): significantly increased | viscoelastic ratio change vs paired control (words) ([1]; 20% ribose 1 hr + 365 nm UVA lamp 1 hr, listed as Ribose): not significantly changed | equilibrium modulus change vs paired control (words) [1, 4]: significantly higher; also recorded: statistically significant differences | viscoelastic ratio change vs paired control (words) [1, 4]: No significant changes; also recorded: None of the ROS-Glycation-CxL treatments produced a significant difference | equilibrium modulus change vs paired control (words) [1, 5]: significantly higher; also recorded: statistically significant differences | instantaneous modulus change vs paired control [1, 5]: significantly increased | viscoelastic ratio change vs paired control (words) [1, 5]: No significant changes; also recorded: None of the ROS-Glycation-CxL treatments produced a significant difference | equilibrium modulus change vs paired control (words) [1, 6]: significantly increased | viscoelastic ratio change vs paired control (words) [1, 6]: not significantly changed | equilibrium modulus ([1]; Group 1A: 20% ribose PBS 1 hr, then 1069 nm femtosecond laser 450 mW, coverslip pressed): 25 kPa and 26.7 kPa | equilibrium modulus ([1]; Group 1B: 20% ribose PBS 1 hr, then 400 nm femtosecond laser, coverslip pressed): 60 kPa and 63.2 kPa | equilibrium modulus ([1]; Group 1C: 20% ribose PBS 1 hr, then 365 nm UVA lamp 1 hr, coverslip pressed): 100 kPa and 115.3 kPa | equilibrium modulus, 1.5 hr vs 3 hr irradiation ([1]; Group 2C: ribose + 365 nm UVA lamp 1.5 hours vs 3 hours): no significant difference in mechanical properties; also recorded: no different in equilibrium modulus | viscoelastic ratio, 3 hr vs 1.5 hr irradiation ([1]; Group 2C: ribose + 365 nm UVA lamp 3 hours vs 1.5 hours): significantly higher viscoelastic ratio; also recorded: significant difference | equilibrium modulus, fold of control's modulus ([1]; ribose + 400 nm laser at 100 mW vs ribose-only control): ~4.6 fold | equilibrium modulus, fold of control's modulus ([1]; ribose + 1060 nm laser at 450 mW vs ribose-only control): ~3.8 fold | equilibrium modulus, fold of paired control modulus ([1]; ribose + one-hour 365 nm UVA lamp vs ribose-only control): ~8.2 fold | equilibrium modulus ([1]; ribose-only paired controls, no light exposure): around 10 kPa | sustained thickness change, treated vs control ([2]; Group 2A, 1.5 hr treatment): no significant difference; also recorded: no significant immediate and sustained corneal apical thickness differences | immediate thickness change, treated vs loading-only control ([2]; Group 2A, 1.5 hr treatment, immediately after treatment): no significant thickness change difference; also recorded: no significant immediate and sustained corneal apical thickness differences | thickness increase compared to the baseline ([2]; Group 2A): above 100 μm | sustained thickness change, treated vs control ([2]; Group 2B, 3 hr treatment): no significant difference; also recorded: no significant immediate and sustained corneal apical thickness differences | thickness increase compared to the baseline ([2]; Group 2B): above 200 μm | immediate apical thickness increase compared to loading-only control ([2]; Group 2B: coverslip flattening + 3 hr ROS-Glycation CxL, immediately after treatment): 400 nm
